# Laboratory results as given in patent US6544966B1, “Agents promoting laminin production in skin cells” (Shiseido Company, Ltd., priority 1998, dated 2003).
# “And” between values parts separate entries of the source, which are not always exact repeats. Identical values can stand only once.
# Tested on: epidermic stratum corneum cells
# Test: Tests for the ability to produce laminin 5 (culture of epidermic stratum corneum cells, sandwich ELISA)
# Format: cell-based, human
# Protocol: Epidermic stratum corneum cells were isolated from the human preputium and cultured in an epidermic cell growth medium (KGM) having a low calcium concentration. To this culture medium were added bovine pituitary extract and EGF. After the cells were cultured in KGM up to the fourth generation, and treated with trypsin and EDTA to suspend adherent cells. Then, the culture was filtered to remove cell aggregates and thereby obtain a homogeneous cell suspension. The cells were collected by centrifugation and resuspended in DMEM-F12 (2:1)-0.1% BSA so as to give a cell density of 8×10^4 per ml. 0.5 ml each of this cell suspension was added to 0.5 ml of the same medium containing a twofold concentration of each test sample. Using a 24-well plate, incubation was carried out at 37° C. for 24 hours. After completion of the incubation, the culture supernatant was transferred to an Eppendorf tube and centrifuged at 15,000 rpm for 5 minutes. The supernatant was transferred to a new tube and stored at−20° C. till the day for the determination of laminin 5. In order to solubilize laminin 5 in the cells and bound to the culture plastics, a tris-HCl buffer (pH 7.4) containing various surfactants was added to each well and allowed to stand at −20° C. overnight. On the following day, the mixture was ultrasonicated and frozen again. On the following day, the mixture was thawed again and centrifuged at 15,000 rpm for 5 minutes. The supernatant was transferred to a tube and stored at −20° C. till the day for the determination of laminin 5.
# Laminin 5 present in the culture supernatant and the cell layer was determined by the sandwich ELISA method. A monoclonal antibody (BM165) to the laminin α3 chain of laminin 5 was attached to a solid layer of a 96-well ELISA plate. In order to measure laminin 5 in a sandwiched manner, a monoclonal antibody (6F12) to the laminin β3 chain was previously biotinized (b-6F12) and used as the other antibody. […] A sample was added to each of the wells in which a 3% gelatin-phosphate buffer solution containing b-6F12 had previously been placed. The final degree of dilution of the sample in the wells was 1/4 for the culture medium and 1/10 for the cell layer. After the antigen-antibody reaction was carried out at 37° C. for 2 hours, the wells were washed, and an avidin HRP (horseradish peroxidase) solution was added thereto and reacted for a period of 30 minutes to 1 hour. After washing, a solution of ABTS serving as a substrate for HRP was added thereto and the absorbance at 405 nm was measured with an ELISA plate reader. A calibration curve was constructed over a range of 0 to 40 ng/ml.
# The yield of laminin 5 was expressed by the sum of the amount liberated into the culture medium and the amount remaining in the cell layer.
substance,measurement,value
lysophosphatidic acid [LPA-C18: 1],Relative yield of laminin 5 based on control with no addition (%) Mean ± Standard deviation,225.4 ± 12.5% and 254.0 ± 8.7%
"lysophosphatidylcholine [LPC-C12: 0, reference compound]",Relative yield of laminin 5 based on control with no addition (%) Mean ± Standard deviation,88.6 ± 5.1%
lysophosphatidylcholine [LPC-C14: 0],Relative yield of laminin 5 based on control with no addition (%) Mean ± Standard deviation,100.8 ± 5.6%
lysophosphatidylcholine [LPC-C16: 0],Relative yield of laminin 5 based on control with no addition (%) Mean ± Standard deviation,104.5 ± 3.3%
lysophosphatidylcholine [LPC-C18: 0],Relative yield of laminin 5 based on control with no addition (%) Mean ± Standard deviation,112.4 ± 8.0%
lysophosphatidylcholine [LPC-C18: 1],Relative yield of laminin 5 based on control with no addition (%) Mean ± Standard deviation,112.7 ± 6.7% and 147.4 ± 5.2%
lysophosphatidylcholine [LPC-C18: 2],Relative yield of laminin 5 based on control with no addition (%) Mean ± Standard deviation,133.6 ± 1.3% and 174.0 ± 5.4%
